Our source for the IC50 values is patent US20170197979A1, “BENZOTHIADIAZOLAMINES” (BAYER PHARMA AKTIENGESELLSCHAFT, priority 2014, published 2017).

For the assay, the target named is T1, human full-length MKNK1 (Homo sapiens, UniProt Q9BUB5, T385D).
T1 construct: GST (N); purchased Carna Biosciences 02-145; host or cells: insect cells (baculovirus expression system)
T1 sequence (Q9BUB5 1-424 isoform Q9BUB5-2 T344D): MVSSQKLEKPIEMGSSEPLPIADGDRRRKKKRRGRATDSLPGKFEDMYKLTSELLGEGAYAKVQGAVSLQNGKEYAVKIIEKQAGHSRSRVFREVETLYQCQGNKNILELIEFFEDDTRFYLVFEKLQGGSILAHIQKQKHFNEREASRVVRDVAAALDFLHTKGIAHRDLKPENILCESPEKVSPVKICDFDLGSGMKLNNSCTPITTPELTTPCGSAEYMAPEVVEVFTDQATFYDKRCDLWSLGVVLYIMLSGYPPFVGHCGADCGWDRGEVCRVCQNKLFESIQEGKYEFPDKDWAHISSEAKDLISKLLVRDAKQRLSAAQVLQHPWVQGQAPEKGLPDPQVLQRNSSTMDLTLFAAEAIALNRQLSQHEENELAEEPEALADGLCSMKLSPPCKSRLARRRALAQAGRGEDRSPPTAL
Description: MKNK1 kinase high ATP assay (TR-FRET). The assay is classed as biochemical. The settings on record: TR-FRET, high ATP (2 mM final), 15 min preincubation with enzyme, GST-MKNK1 (T344D); read-out: MKNK1 IC50. The method, then:
MKNK1 Kinase High ATP Assay
MKNK1-inhibitory activity at high ATP of compounds of the present invention after their preincubation with MKNK1 was quantified employing the TR-FRET-based MKNK1 high ATP assay as described in the following paragraphs.
A recombinant fusion protein of Glutathione-S-Transferase (GST, N-terminally) and human full-length MKNK1 (amino acids 1-424 and T344D of accession number BAA 19885.1), expressed in insect cells using baculovirus expression system and purified via glutathione sepharose affinity chromatography, was purchased from Carna Biosciences (product no 02-145) and used as enzyme. As substrate for the kinase reaction the biotinylated peptide biotin-Ahx-IKKRKLTRRKSLKG (C-terminus in amide form) was used, which can be purchased e.g. from the company Biosyntan (Berlin-Buch, Germany).
For the assay 50 nL of a 100 fold concentrated solution of the test compound in DMSO was pipetted into a black low volume 384 well microtiter plate (Greiner Bio-One, Frickenhausen, Germany), 2 μL of a solution of MKNK1 in aqueous assay buffer [50 mM HEPES pH 7.5, 5 mM MgCl2, 1.0 mM dithiothreitol, 0.005% (v/v) Nonidet-P40 (Sigma)] was added and the mixture was incubated for 15 min at 22° C. to allow pre-binding of the test compounds to the enzyme before the start of the kinase reaction. Then the kinase reaction was started by the addition of 3 μL of a solution of adenosine-tri-phosphate (ATP, 3.3 mM=>final conc. in the 5 μL assay volume is 2 mM) and substrate (0.1 μM=>final conc. in the 5 μL assay volume is 0.06 μM) in assay buffer and the resulting mixture was incubated for a reaction time of 30 min at 22° C. The concentration of MKNK1 was adjusted depending of the activity of the enzyme lot and was chosen appropriate to have the assay in the linear range, typical concentrations were in the range of 0.003 μg/mL. The reaction was stopped by the addition of 5 μL of a solution of TR-FRET detection reagents (5 nM streptavidine-XL665 [Cisbio Bioassays, Codolet, France] and 1 nM anti-ribosomal protein S6 (pSer236)-antibody from Invitrogen [#44921G] and 1 nM LANCE EU-W1024 labeled ProteinG [Perkin-Elmer, product no. AD0071]) in an aqueous EDTA-solution (100 mM EDTA, 0.1% (w/v) bovine serum albumin in 50 mM HEPES pH 7.5).
The resulting mixture was incubated for 1 h at 22° C. to allow the formation of complex between the phosphorylated biotinylated peptide and the detection reagents. Subsequently the amount of phosphorylated substrate was evaluated by measurement of the resonance energy transfer from the Eu-chelate to the streptavidine-XL. Therefore, the fluorescence emissions at 620 nm and 665 nm after excitation at 350 nm were measured in a TR-FRET reader, e.g. a Rubystar (BMG Labtechnologies, Offenburg, Germany) or a Viewlux (Perkin-Elmer). The ratio of the emissions at 665 nm and at […] was taken as the measure for the amount of phosphorylated substrate. The data were normalised (enzyme reaction without inhibitor=0% inhibition, all other assay components but no enzyme=100% inhibition).
With `CN(C)CCN1CCN(C(=O)[C@H]2CCc3c(sc4ncnc(Nc5ccc6nnsc6c5)c34)C2)CC1` [Example 12, [(7S)-4-(1,2,3-Benzothiadiazol-6-ylamino)-5,6,7,8-tetrahydro[1]benzothieno[2,3-d]pyrimidin-7-yl]{4-[2-(dimethylamino)ethyl]piperazin-1-yl}methanone], the IC50 was 6.4 nM.

As for `COc1cc2nnsc2cc1Nc1ncnc2sc3c(c12)CC[C@H](C(=O)N1CCC(N(C)C)CC1)C3` [Example 47, [4-(Dimethylamino)piperidin-1-yl]{(7S)-4-[(5-methoxy-1,2,3-benzothiadiazol-6-yl)amino]-5,6,7,8-tetrahydro[1]benzothieno[2,3-d]pyrimidin-7-yl}methanone], the IC50 is 7.6 nM.

`COc1cc2nnsc2cc1Nc1ncnc2sc3c(c12)CC[C@H](C(=O)N(C)C(C)C)C3` [Example 37, (7S)-4-[(5-Methoxy-1,2,3-benzothiadiazol-6-yl)amino]-N-methyl-N-(propan-2-yl)-5,6,7,8-tetrahydro[1]benzothieno[2,3-d]pyrimidine-7-carboxamide]: the IC50 is 1.2 nM.

For `C[C@H]1COCCN1C(=O)[C@H]1CCc2c(sc3ncnc(Nc4ccc5nnsc5c4)c23)C1` [Example 5, [(7S)-4-(1,2,3-Benzothiadiazol-6-ylamino)-5,6,7,8-tetrahydro[1]benzothieno[2,3-d]pyrimidin-7-yl][(3S)-3-methylmorpholin-4-yl]methanone], the 50% inhibitory concentration (IC50) was 12 nM.

Regarding `CN(CCN)C(=O)[C@H]1CCc2c(sc3ncnc(Nc4ccc5nnsc5c4)c23)C1` [Example 25, (7S)—N-(2-Aminoethyl)-4-(1,2,3-benzothiadiazol-6-ylamino)-N-methyl-5,6,7,8-tetrahydro[1]benzothieno[2,3-d]pyrimidine-7-carboxamide], the half-inhibitory concentration (IC50) was determined as 3.2 nM.

Consider `O=C([C@H]1CCc2c(sc3ncnc(Nc4ccc5nnsc5c4)c23)C1)N1CC2(COC2)C1` [Example 20, [(7S)-4-(1,2,3-Benzothiadiazol-6-ylamino)-5,6,7,8-tetrahydro[1]benzothieno[2,3-d]pyrimidin-7-yl](2-oxa-6-azaspiro[3.3]hept-6-yl)methanone], for which the IC50 amounted to 16 nM.

Take `CCN(CCO)C(=O)[C@H]1CCc2c(sc3ncnc(Nc4ccc5nnsc5c4)c23)C1` [Example 28, (7S)-4-(1,2,3-Benzothiadiazol-6-ylamino)-N-ethyl-N-(2-hydroxyethyl)-5,6,7,8-tetrahydro[1]benzothieno[2,3-d]pyrimidine-7-carboxamide]: the IC50 came to 8.6 nM.

Consider `COc1cc2nnsc2cc1Nc1ncnc2sc3c(c12)CC[C@H](C(=O)N1CCN(C)CC1)C3` [Example 50, {(7S)-4-[(5-Methoxy-1,2,3-benzothiadiazol-6-yl)amino]-5,6,7,8-tetrahydro[1]benzothieno[2,3-d]pyrimidin-7-yl}(4-methylpiperazin-1-yl)methanone], for which the IC50 was 11 nM.

Take `COc1cc2nnsc2cc1Nc1ncnc2sc3c(c12)CC[C@H](C(=O)N(C)C)C3` [Example 35, (7S)-4-[(5-Methoxy-1,2,3-benzothiadiazol-6-yl)amino]-N,N-dimethyl-5,6,7,8-tetrahydro[1]benzothieno[2,3-d]pyrimidine-7-carboxamide]: the IC50 was determined as 1.3 nM.

Take `O=C([C@H]1CCc2c(sc3ncnc(Nc4ccc5nnsc5c4)c23)C1)N1CCOCC1` [Example 6, [(7S)-4-(1,2,3-Benzothiadiazol-6-ylamino)-5,6,7,8-tetrahydro[1]benzothieno[2,3-d]pyrimidin-7-yl](morpholin-4-yl)methanone]: the half-inhibitory concentration (IC50) came to 18 nM.

For `CN(CC(F)F)C(=O)[C@H]1CCc2c(sc3ncnc(Nc4ccc5nnsc5c4)c23)C1` [Example 26, (7S)-4-(1,2,3-Benzothiadiazol-6-ylamino)-N-(2,2-difluoroethyl)-N-methyl-5,6,7,8-tetrahydro[1]benzothieno[2,3-d]pyrimidine-7-carboxamide], the IC50 was 11 nM.

Take `C[C@@H]1CN(C(=O)[C@H]2CCc3c(sc4ncnc(Nc5ccc6nnsc6c5)c34)C2)C[C@@H](C)O1` [Example 8, [(7S)-4-(1,2,3-Benzothiadiazol-6-ylamino)-5,6,7,8-tetrahydro[1]benzothieno[2,3-d]pyrimidin-7-yl][(2R,6R)-2,6-dimethylmorpholin-4-yl]methanone]: the IC50 is 6.4 nM.

In the case of `COCCN(C)C(=O)[C@H]1CCc2c(sc3ncnc(Nc4cc5snnc5cc4OC)c23)C1` [Example 39, (7S)-4-[(5-Methoxy-1,2,3-benzothiadiazol-6-yl)amino]-N-(2-methoxyethyl)-N-methyl-5,6,7,8-tetrahydro[1]benzothieno[2,3-d]pyrimidine-7-carboxamide], the IC50 was found to be 0.6 nM.

As for `COc1cc2nnsc2cc1Nc1ncnc2sc3c(c12)CC[C@H](C(=O)N(C)CCNC(=O)OC(C)(C)C)C3` [Example 40, tert-Butyl {2-[({(7S)-4-[(5-methoxy-1,2,3-benzothiadiazol-6-yl)amino]-5,6,7,8-tetrahydro[1]benzothieno[2,3-d]pyrimidin-7-yl}carbonyl)(methyl)amino]ethyl}carbamate], the half-inhibitory concentration (IC50) stood at 0.8 nM.

For `COCCN(C)C(=O)[C@H]1CCc2c(sc3ncnc(Nc4ccc5nnsc5c4)c23)C1` [Example 2, (7S)-4-(1,2,3-Benzothiadiazol-6-ylamino)-N-(2-methoxyethyl)-N-methyl-5,6,7,8-tetrahydro[1]benzothieno[2,3-d]pyrimidine-7-carboxamide], the IC50 was determined as 9.4 nM.

Consider `O=C([C@H]1CCc2c(sc3ncnc(Nc4ccc5nnsc5c4)c23)C1)N1C[C@@H]2C[C@H]1CO2` [Example 18, [(7S)-4-(1,2,3-Benzothiadiazol-6-ylamino)-5,6,7,8-tetrahydro[1]benzothieno[2,3-d]pyrimidin-7-yl][(1S,4S)-2-oxa-5-azabicyclo[2.2.1]hept-5-yl]methanone], for which the IC50 worked out at 14 nM.

Take `C[C@@H]1COC[C@@H](C)N1C(=O)[C@H]1CCc2c(sc3ncnc(Nc4ccc5nnsc5c4)c23)C1` [Example 9, [(7S)-4-(1,2,3-Benzothiadiazol-6-ylamino)-5,6,7,8-tetrahydro[1]benzothieno[2,3-d]pyrimidin-7-yl][(3R,5R)-3,5-dimethylmorpholin-4-yl]methanone]: the IC50 was found to be 5.4 nM.
